This note sets out measurements from patent US11091478B2 (Fochon Pharmaceuticals, Ltd., priority 2017, dated 2021).

The test system of experiment [1] is DOHH2 cells. Nature of the experiment: Cell proliferation assay (MTS), DOHH2 cells, 120 h. Format: cell-based. A digest of the protocol: (§1)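 RS4;11 and DOHH2 cells at 5000 cells/well in RPMI-1640 with 10% FBS were treated with compound at 1.5–10000 nM final, nine points, at 37 °C, 5% CO2. Exposure was 72 h for RS4;11 and 120 h for DOHH2. MTS was added for 2 h, absorbance read at 490/650 nm, and IC50 calculated.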

Experiment [2] has as its system RS4;11 cells. As to the kind of experiment: Cell proliferation assay (MTS), RS4;11 cells, 72 h. Format: cell-based. In short, it runs like this: as §1

Read-outs that look alike come from different tables or passages of the source.

Broadly, the IC50 is the concentration that inhibits the measured activity by half. Read a low IC50 as greater potency. For `CC1(C)CCC(CN2CCN(c3ccc(C(=O)NS(=O)(=O)c4cc5c(c([N+](=O)[O-])c4)N[C@@H](CCN=S(C)(C)=O)CO5)c(Oc4cnc5[nH]ccc5c4)c3)CC2)=C(c2ccc(Cl)cc2)C1` [Example 2-43, (S)-2-((1H-pyrrolo[2,3-b]pyridin-5-yl)oxy)-4-(4-((4′-chloro-5,5-dimethyl-3,4,5,6-tetra-hydro-[1,1′-biphenyl]-2-yl)methyl)piperazin-1-yl)-N-((3-(2-((dimethyl(oxo)-l6-sulfanyl-idene)amino)ethyl)-5-nitro-3,4-dihydro-2H-benzo[b][1,4]oxazin-7-yl)sulfonyl)benza-mide], the values for the IC50 in experiment [1] and in experiment [2] were 10 nM and 1 nM, respectively.

Take `C[C@@H]1CN(CC[C@H]2COc3cc(S(=O)(=O)NC(=O)c4ccc(N5CCN(CC6=C(c7ccc(Cl)cc7)CC(C)(C)CC6)CC5)cc4Oc4cnc5[nH]ccc5c4)cc([N+](=O)[O-])c3N2)CCN1C1COC1` [Example 2-49, 2-((1H-pyrrolo[2,3-b]pyridin-5-yl)oxy)-4-(4-((4′-chloro-5,5-dimethyl-3,4,5,6-tetrahydro-[1,1′-biphenyl]-2-yl)methyl)piperazin-1-yl)-N-(((S)-3-(2-((R)-3-methyl-4-(oxetan-3-yl)piperazin-1-yl)ethyl)-5-nitro-3,4-dihydro-2H-benzo[b][1,4]oxazin-7-yl)sulfonyl) benzamide]: the half-inhibitory concentration (IC50) in experiment [1] (Homo sapiens, DOHH-2, 120 h) amounted to 12 nM; in experiment [2] (Homo sapiens, RS4-11, 72 h), 16 nM.

On to `CC[C@H]1COc2cc(S(=O)(=O)NC(=O)c3ccc(N4CCN(CC5=C(c6ccc(Cl)cc6)CC(C)(C)CC5)CC4)cc3Oc3cnc4[nH]ccc4c3)cc([N+](=O)[O-])c2N1` [Example 2-112], for which the half-maximal inhibitory concentration (IC50) in experiment [1] (Homo sapiens, DOHH-2, 120 h) amounted to 15 nM; in experiment [2] (Homo sapiens, RS4-11, 72 h), 11 nM.

Regarding `CC1(C)CCC(c2ccc(Cl)cc2)=C(CN2CCN(c3ccc(C(=O)NS(=O)(=O)c4cc5c(c([N+](=O)[O-])c4)N[C@H](CN4C[C@@H]6C[C@H]4CO6)CO5)c(Oc4cnc5[nH]ccc5c4)c3)CC2)C1` [Example 2-209, 2-((1H-pyrrolo[2,3-b]pyridin-5-yl)oxy)-N-(((R)-3-(((1S,4S)-2-oxa-5-azabicyclo[2.2.1]heptan-5-yl)methyl)-5-nitro-3,4-dihydro-2H-benzo[b][1,4]oxazin-7-yl)sulfonyl)-4-(4-((4′-chloro-4,4-dimethyl-3,4,5,6-tetrahydro-[1,1′-biphenyl]-2-yl)methyl)piperazin-1-yl) benzamide], the half-inhibitory concentration (IC50) in experiment [1] (Homo sapiens, DOHH-2, 120 h) stood at 35 nM; in experiment [2] (Homo sapiens, RS4-11, 72 h), 1 nM.

In the case of `CC1(C)CCC(CN2CCN(c3ccc(C(=O)NS(=O)(=O)c4cc5c(c([N+](=O)[O-])c4)N[C@H](CN4C[C@@H]6C[C@H]4CO6)CO5)c(-n4ncc5nc6[nH]ccc6cc54)c3)CC2)=C(c2ccc(Cl)cc2)C1` [Example 6-1, N—(((R)-3-(((1S,4S)-2-oxa-5-azabicyclo[2.2.1]heptan-5-yl)methyl)-5-nitro-3,4-dihydro-2H-benzo[b][1,4]oxazin-7-yl)sulfonyl)-4-(4-((4′-chloro-5,5-dimethyl-3,4,5,6-tetrahydro-[1,1′-biphenyl]-2-yl)methyl)piperazin-1-yl)-2-(pyrazolo[4,3-b]pyrrolo[3,2-e]pyridin-1(5H)-yl)benzamide], the IC50 came out at 73 nM in experiment [1] (Homo sapiens, DOHH-2, 120 h) and 2 nM in experiment [2] (Homo sapiens, RS4-11, 72 h).

`CC1(C)CCC(CN2CCN(c3ccc(C(=O)NS(=O)(=O)c4cc5c(c([N+](=O)[O-])c4)N[C@H](CCN4CCOCC4)C5)c(Oc4cnc5[nH]ccc5c4)c3)CC2)=C(c2ccc(Cl)cc2)C1` [Example 1-2, (S)-2-((1H-pyrrolo[2,3-b]pyridin-5-yl)oxy)-4-(4-((4′-chloro-5,5-dimethyl-3,4,5,6-tetrahydro-[1,1′-biphenyl]-2-yl)methyl)piperazin-1-yl)-N-((2-(2-morpholinoethyl)-7-nitroindolin-5-yl)sulfonyl)benzamide]: the IC50 in experiment [1] (Homo sapiens, DOHH-2, 120 h) came to 79 nM; in experiment [2] (Homo sapiens, RS4-11, 72 h), 38 nM.

For `C[C@@H]1CN(CC[C@@H]2COc3cc(S(=O)(=O)NC(=O)c4ccc(N5CCN(CC6=C(c7ccc(Cl)cc7)CC(C)(C)CC6)CC5)cc4Oc4cnc5[nH]ccc5c4)cc([N+](=O)[O-])c3N2)CCN1C1COC1` [Example 2-39, 2-((1H-pyrrolo[2,3-b]pyridin-5-yl)oxy)-4-(4-((4′-chloro-5,5-dimethyl-3,4,5,6-tetrahydro-[1,1′-biphenyl]-2-yl)methyl)piperazin-1-yl)-N-(((R)-3-(2-((R)-3-methyl-4-(oxetan-3-yl)piperazin-1-yl)ethyl)-5-nitro-3,4-dihydro-2H-benzo[b][1,4]oxazin-7-yl)sulfonyl) benzamide], the IC50 in experiment [1] (Homo sapiens, DOHH-2, 120 h) turned out to be 33 nM; in experiment [2] (Homo sapiens, RS4-11, 72 h) it was 9 nM.

As for `CC1(C)CCC(CN2CCN(c3ccc(C(=O)NS(=O)(=O)c4cc5c(c([N+](=O)[O-])c4)N[C@@H](CN4C[C@H]6C[C@@H]4CO6)CO5)c(Oc4cnc5[nH]ccc5c4)c3)CC2)=C(c2ccc(Cl)cc2)C1` [Example 2-88, 2-((1H-pyrrolo[2,3-b]pyridin-5-yl)oxy)-N-(((S)-3-(((1R,4R)-2-oxa-5-azabicyclo[2.2.1]heptan-5-yl)methyl)-5-nitro-3,4-dihydro-2H-benzo[b][1,4]oxazin-7-yl)sulfonyl)-4-(4-((4′-chloro-5,5-dimethyl-3,4,5,6-tetrahydro-[1,1′-biphenyl]-2-yl)methyl)piperazin-1-yl) benzamide], the concentration for half-maximal inhibition (IC50) in experiment [1] (Homo sapiens, DOHH-2, 120 h) turned out to be 14 nM; in experiment [2] (Homo sapiens, RS4-11, 72 h) it was 2 nM.

Regarding `COC1CCC([C@@H]2COc3cc(S(=O)(=O)NC(=O)c4ccc(N5CCN(CC6=C(c7ccc(Cl)cc7)CC(C)(C)CC6)CC5)cc4Oc4cnc5[nH]ccc5c4)cc([N+](=O)[O-])c3N2)CC1` (stereo partly drawn) [Example 2-248A, (R)-2-((1H-pyrrolo[2,3-b]pyridin-5-yl)oxy)-4-(4-((4′-chloro-5,5-dimethyl-3,4,5,6-tetra-hydro-[1,1′-biphenyl]-2-yl)methyl)piperazin-1-yl)-N-((3-(4-methoxycyclohexyl)-5-nitro-3,4-dihydro-2H-benzo[b][1,4]oxazin-7-yl)sulfonyl)benzamide], the IC50 in experiment [1] (Homo sapiens, DOHH-2, 120 h) was 27 nM; in experiment [2] (Homo sapiens, RS4-11, 72 h), 35 nM.

Regarding `CC1(C)CCC(CN2CCN(c3ccc(C(=O)NS(=O)(=O)c4cc5c(c([N+](=O)[O-])c4)N[C@H](CC4CCNCC4)CO5)c(Oc4cnc5[nH]ccc5c4)c3)CC2)=C(c2ccc(Cl)cc2)C1` [Example 2-214, (R)-2-((1H-pyrrolo[2,3-b]pyridin-5-yl)oxy)-4-(4-((4′-chloro-5,5-dimethyl-3,4,5,6-tetra-hydro-[1,1′-biphenyl]-2-yl)methyl)piperazin-1-yl)-N-((5-nitro-3-(piperidin-4-ylmethyl)-3,4-dihydro-2H-benzo[b][1,4]oxazin-7-yl)sulfonyl)benzamide], the IC50 in experiment [1] (Homo sapiens, DOHH-2, 120 h) was found to be 465 nM; in experiment [2] (Homo sapiens, RS4-11, 72 h), 16 nM.

Consider `CC1(C)CCC(c2ccc(Cl)cc2)=C(CN2CCN(c3ccc(C(=O)NS(=O)(=O)c4cc5c(c([N+](=O)[O-])c4)N[C@H](CO[C@H]4CC[C@H](O)CC4)CO5)c(Oc4cnc5[nH]ccc5c4)c3)CC2)C1` [Example 2-243, 2-((1H-pyrrolo[2,3-b]pyridin-5-yl)oxy)-4-(4-((4′-chloro-4,4-dimethyl-3,4,5,6-tetrahydro-[1,1′-biphenyl]-2-yl)methyl)piperazin-1-yl)-N-(((R)-3-((((1r,4R)-4-hydroxycyclo-hexyl)oxy)methyl)-5-nitro-3,4-dihydro-2H-benzo[b][1,4]oxazin-7-yl)sulfonyl)benzamide], for which the IC50 stood at 1 nM in experiment [1] (Homo sapiens, DOHH-2, 120 h) and 9 nM in experiment [2] (Homo sapiens, RS4-11, 72 h).

In the case of `CC1(C)CCC(CN2CCN(c3ccc(C(=O)NS(=O)(=O)c4cc5c(c([N+](=O)[O-])c4)N[C@@H](CC4CCNCC4)CO5)c(Oc4cnc5[nH]ccc5c4)c3)CC2)=C(c2ccc(Cl)cc2)C1` [Example 2-221, (S)-2-((1H-pyrrolo[2,3-b]pyridin-5-yl)oxy)-4-(4-((4′-chloro-5,5-dimethyl-3,4,5,6-tetra-hydro-[1,1′-biphenyl]-2-yl)methyl)piperazin-1-yl)-N-((5-nitro-3-(piperidin-4-ylmethyl)-3,4-dihydro-2H-benzo[b][1,4]oxazin-7-yl)sulfonyl)benzamide], the 50% inhibitory concentration (IC50) in experiment [1] (Homo sapiens, DOHH-2, 120 h) is 474 nM; in experiment [2] (Homo sapiens, RS4-11, 72 h), 30 nM.

Consider `CC1(C)CCC(CN2CCN(c3ccc(C(=O)NS(=O)(=O)c4cc5c(c([N+](=O)[O-])c4)N[C@@H](CN4CCN(C(=O)C6CC6)CC4)CO5)c(Oc4cnc5[nH]ccc5c4)c3)CC2)=C(c2ccc(Cl)cc2)C1` [Example 2-99, (S)-2-((1H-pyrrolo[2,3-b]pyridin-5-yl)oxy)-4-(4-((4′-chloro-5,5-dimethyl-3,4,5,6-tetra-hydro-[1,1′-biphenyl]-2-yl)methyl)piperazin-1-yl)-N-((3-((4-(cyclopropanecarbonyl)piperazin-1-yl)methyl)-5-nitro-3,4-dihydro-2H-benzo[b][1,4]oxazin-7-yl)sulfonyl)benza-mide], for which the IC50 was determined as 20 nM in experiment [1] (Homo sapiens, DOHH-2, 120 h) and 8 nM in experiment [2] (Homo sapiens, RS4-11, 72 h).

Take `C[C@@H]1CN(C[C@H]2COc3cc(S(=O)(=O)NC(=O)c4ccc(N5CCN(CC6=C(c7ccc(Cl)cc7)CC(C)(C)CC6)CC5)cc4Oc4cnc5[nH]ccc5c4)cc([N+](=O)[O-])c3N2)CCN1C` [Example 2-26, 2-((1H-pyrrolo[2,3-b]pyridin-5-yl)oxy)-4-(4-((4′-chloro-5,5-dimethyl-3,4,5,6-tetrahydro-[1,1′-biphenyl]-2-yl)methyl)piperazin-1-yl)-N-(((S)-3-(((R)-3,4-dimethylpiperazin-1-yl)methyl)-5-nitro-3,4-dihydro-2H-benzo [b][1,4]oxazin-7-yl)sulfonyl)benzamide]: the IC50 came to 19 nM in experiment [1] (Homo sapiens, DOHH-2, 120 h) and 6 nM in experiment [2] (Homo sapiens, RS4-11, 72 h).

As to `C[C@@H]1COc2cc(S(=O)(=O)NC(=O)c3ccc(N4CCN(CC5=C(c6ccc(Cl)cc6)CC(C)(C)CC5)CC4)cc3Oc3cnc4[nH]ccc4c3)cc([N+](=O)[O-])c2N1` [Example 2-106, (R)-2-((1H-pyrrolo[2,3-b]pyridin-5-yl)oxy)-4-(4-((4′-chloro-5,5-dimethyl-3,4,5,6-tetra-hydro-[1,1′-bipehnyl]-2-yl)methyl)piperazin-1-yl)-N-((3-methyl-5-nitro-3,4-dihydro-2H-benzo[b][1,4]oxazin-7-yl)sulfonyl)benza-mide], the half-inhibitory concentration (IC50) in experiment [1] (Homo sapiens, DOHH-2, 120 h) worked out at 19 nM; in experiment [2] (Homo sapiens, RS4-11, 72 h) it was 9 nM.
